Results from US20250051282A1, “COMPOUNDS FOR TREATING POLYQ-RELATED NEURODEGENERATIVE DISORDERS” (HANGZHOU JIJING PHARMACEUTICAL TECHNOLOGY LIMITED, priority 2021, published 2025).

Test system: ATXN1(60Q)
Assay: Daoy-ATXN1(60Q)-mATXN1 MSD assay (CTG normalized)
Assay type: cell-based
Details: Daoy-Flag-ATXN1(60Q) stable cells, compound added Day 2, lysis Day 3, final DMSO 0.3%, read-out: Daoy-ATXN1(60Q)-mATXN1 MSD (CTG normalized) DC50
Experimental: Protocol for MSD Assay: Daoy-ATXN1(600)-mATXN1 MSD (CTG normalized)
The Flag-ATXN1(60Q) gene is synthesized by Genescript and cloned into the pLVX-IRES-Puro vector (Takarabio, catalog No. 632183) using EcoRI/BamHI restriction enzyme sites. Lentivirus is made by transfecting HEK293T cells with pLVX-IRES-Puro-Flag-ATXN1(60Q) plasmids and packaging plasmids psPAX2 and pMD2.G at 4:3:1 ratio (8:6:[…], respectively) in 10 cm plates, and are harvested at 48 hours post transfection. Daoy cells (ATCC catalog No. HTB-186) seeded in T25 flasks are infected with the lentivirus in the presence of 8 µg/mL polybrene (Sigma, TR-1003-G) for 24 hours. 48 hours post infection, the cells are selected using 0.5 […] (Sigma, P8833) for more than 5 days until all cells in the uninfected group die. The expression of Flag-ATXN1(60Q) is verified by anti-Flag immunoblot using anti-Flag antibody (Sigma, F1804-200UG, M2).
As explained above, Daoy-Flag-ATXN1(60Q) cells are prepared as a stable cell line by infecting Daoy cells with lentivirus. The media for the cells is EMEM (ATTC, 30-2008) with 10% fetal bovin serum (FBS).
On Day 1, the Daoy-Flag-ATXN1(60Q) cells are seeded in a 96 well plate at a concentration of 1.2×10^4/well. On Day 2, the cells are treated with test compounds at test concentrations (compounds are serially diluted with DMSO to obtain test concentrations, such that final DMSO concentration is 0.3%). On Day 3, the cells are washed with 100 μL of phosphate-buffered saline (PBS) per well, and then 30 μL of radioimmuno-precipitation assay (RIPA) buffer (with protease and phosphatase inhibitor cocktail) is added to each well.
The well plate is then cooled on ice for 30 minutes in order to complete lysis, and MSD samples are prepared using 10 μL of Daoy-Flag-ATXN1-60Q lysate and 90 μL of RIPA buffer with gentle mixing. Each MSD sample has a total volume of 100 μL, and is used immediately or stored at −80° C.
A standard Meso Scale Discovery (MSD) plate is coated with anti-Flag (Sigma, F1804-200UG, M2) in PBS at 1:500 dilution ratio and 40 µL/well, and is incubated at 4° C. overnight with shaking at 600 rpm. Then, the MSD plate is washed 3 times with 150 µL/well of 1X TBST (tris-buffered saline (TBS) with Tween 20) buffer, and the MSD plate is blocked with 150 μL of blocking buffer [3% Blocker A in 1X TBST, (3 g Blocker A per 100 mL 1X TBST)] and shaken for 1 hour at 600 rpm at room temperature. Then, the MSD plate is washed three times with 150 μL/well of 1X TBST. Next, the diluted lysate samples (from Sample Preparation above) are added to the MSD plate at 25 μL/well, and the MSD plate is shaken at 600 rpm for 1 hour at room temperature. Then the MSD plate is washed 3 times with 150 μL/well of 1X TBST.
Detection antibody anti-Ataxin 1 (G-bio, ITA1916) (1:500), which is prepared in antibody detection buffer (1% Blocker A in 1X TBST), is then added to the MSD plate at 25 µL/well, and the MSD plate is shaken at 600 rpm for 1 hour at room temperature. The MSD plate is then washed three times with 150 μL/well of 1X TBST. Next, a secondary detection antibody, Goat anti-rabit (GAR) with SULFO-TAG (1:500), which is prepared in antibody detection buffer (1% Blocker A in 1X TBST), is added at 25 μL/well and the MSD plate is shaken at 600 rpm for 1 hour at room temperature. Then the MSD plate is washed 3 times with 150 μL/well of 1X TBST, and 2X MSD reading buffer is added at 150 μL/well (diluted from 4x MSD reading buffer with water). Finally, the signal from each well is measured on the MSD Meso QuickPle SQ120 Plate Reader. DC50 data is calculated using collaborate drug discovery (CDD) software (https://www.collaborativedrug.com/about).

Row | SMILES | DC50 [µM]
1 | Cn1cc(N/C(=C2\C(=O)Nc3ccc(Br)cc32)c2ccc(F)c(F)c2)cn1 [Example 43, (Z)-5-bromo-3-((3,4-difluorophenyl)((1-methyl-1H-pyrazol-4-yl)amino)methylene) indolin-2-one] | > 30
2 | O=C1Nc2ccc(Br)cc2/C1=C(/Nc1cccnn1)c1ccccc1 [Example 44, (Z)-5-bromo-3-(phenyl(pyridazin-3-ylamino)methylene) indolin-2-one] | > 30
3 | O=C1Nc2ccc(Br)cc2/C1=C(/Nc1cncnc1)c1ccccc1 [Example 45, (Z)-5-bromo-3-(phenyl(pyrimidin-5-ylamino)methylene) indolin-2-one] | < 10
4 | O=C1Nc2ccc(Br)cc2/C1=C(/Nc1cnccn1)c1ccccc1 [Example 46, (Z)-5-bromo-3-(phenyl(pyrazin-2-ylamino)methylene) indolin-2-one] | > 30
5 | O=C1Nc2ccc(Br)cc2/C1=C(/Nc1cnnc(Cl)c1)c1ccccc1 [Example 47, (Z)-5-bromo-3-((6-chloropyridazin-4-ylamino)(phenyl)methylene)indolin-2-one] | > 30
6 | N#Cc1n[nH]cc1N/C(=C1\C(=O)Nc2ccc(Br)cc21)c1ccccc1 [Example 48, (Z)-4-(((5-bromo-2-oxoindolin-3-ylidene)(phenyl)methyl)amino)-1H-pyrazole-3-carbonitrile] | > 30
7 | O=C1Nc2ccc(Br)cc2/C1=C(/Nc1cncs1)c1ccccc1 [Example 49, (Z)-5-bromo-3-(phenyl(thiazol-5-ylamino)methylene)indolin-2-one] | > 30
8 | Cn1cc(N/C(=C2\C(=O)Nc3ccc(Br)cc32)c2ccccc2)c(C(F)(F)F)n1 [Example 51, (Z)-5-bromo-3-(((1-methyl-3-(trifluoromethyl)-1H-pyrazol-4-yl)amino)(phenyl)methylene)indolin-2-one] | > 30
9 | O=C1Nc2ccc(Br)cc2/C1=C(/Nc1cnn(CCO)c1)c1ccccc1 [Example 53, (Z)-5-bromo-3-(((1-(2-hydroxyethyl)-1H-pyrazol-4-yl)amino)(phenyl)methylene)indolin-2-one] | 10 to 30
10 | O=C1Nc2ccc(Br)cc2/C1=C(/Nc1c[nH]nc1Cl)c1ccccc1 [Example 54, (Z)-5-bromo-3-((3-chloro-1H-pyrazol-4-ylamino)(phenyl)methylene)indolin-2-one] | > 30
11 | O=C1Nc2ccc(Br)cc2/C1=C(/Nc1cnn(C(F)F)c1)c1ccccc1 [Example 55, (Z)-5-bromo-3-(((1-(difluoromethyl)-1H-pyrazol-4-yl)amino)(phenyl)methylene)indolin-2-one] | > 30
12 | NCCN/C(=C1\C(=O)Nc2ccc(Br)cc21)c1ccc2[nH]c(=O)oc2c1 [Example 57, (Z)-6-(((2-aminoethyl)amino)(5-bromo-2-oxoindolin-3-ylidene)methyl) benzo[d]oxazol-2(3H)-one] | 10 to 30
13 | Nc1cccc(/C(NCCCF)=C2/C(=O)Nc3ccc(Br)cc32)c1 [Example 58, (Z)-3-((3-aminophenyl)((3-fluoropropyl)amino)methylene)-5-bromoindolin-2-one] | < 10
14 | Nc1cccc(/C(Nc2cn[nH]c2)=C2/C(=O)Nc3ccc(Br)cc32)c1 [Example 59, (Z)-3-(((1H-pyrazol-4-yl)amino)(3-aminophenyl)methylene)-5-bromoindolin-2-one] | < 10
15 | Nc1cccc(/C(Nc2ccnnc2)=C2/C(=O)Nc3ccc(Br)cc32)c1 [Example 60, (Z)-3-((3-aminophenyl) (pyridazin-4-ylamino)methylene)-5-bromo indolin-2-one] | < 10
16 | CC(=O)NCCOCCOCCOCCN/C(=C1\C(=O)Nc2ccc(Br)cc21)c1cccc(O)c1 [Example 61, (Z)—N-(1-(5-bromo-2-oxoindolin-3-ylidene)-1-(3-hydroxyphenyl)-5,8,11-trioxa-2-azatridecan-13-yl)acetamide] | 10 to 30

Row | SMILES | DC50 [µM]
17 | COc1cc(/C(Nc2ccnnc2)=C2/C(=O)Nc3ccc(Br)cc32)ccc1N [Example 62, (Z)-3-((4-amino-3-methoxyphenyl)(pyridazin-4-ylamino)methylene)-5-bromoindolin-2-one] | > 30
18 | Nc1ccc(/C(Nc2ccnnc2)=C2/C(=O)Nc3ccc(Br)cc32)cc1O [Example 63, (Z)-3-((4-amino-3-hydroxyphenyl)(pyridazin-4-ylamino)methylene)-5-bromoindolin-2-one] | < 10
19 | O=C1Nc2ccc(Br)cc2/C1=C(/Nc1ccnnc1)c1ccc2[nH]c(=O)oc2c1 [Example 64, (Z)-6-((5-bromo-2-oxoindolin-3-ylidene)(pyridazin-4-ylamino)methyl) benzo[d]oxazol-2(3H)-one] | < 10
20 | O=C1Nc2ccc(Br)cc2/C1=C(/Nc1cccnc1)c1cccc(O)c1 [Example 66, (Z)-5-bromo-3-((3-hydroxyphenyl) (pyridin-3-ylamino)methylene)indolin-2-one] | < 10
21 | O=C1Nc2ccc(Br)cc2/C1=C(/Nc1cncnc1)c1cccc(O)c1 [Example 69, (Z)-5-bromo-3-((3-hydroxyphenyl) (pyrimidin-5-ylamino)methylene)indolin-2-one] | < 10
22 | O=C1Nc2ccc(Br)cc2/C1=C(/Nc1cn[nH]c1)c1cccc(O)c1 [Example 70, (Z)-3-(((1H-pyrazol-4-yl)amino)(3-hydroxyphenyl)methylene)-5-bromoindolin-2-one] | < 10
23 | Cn1cc(N/C(=C2\C(=O)Nc3ccc(Br)cc32)c2cccc(O)c2)cn1 [Example 71, (Z)-5-bromo-3-((3-hydroxyphenyl)((1-methyl-1H-pyrazol-4-yl)amino)methylene)indolin-2-one] | < 10
24 | O=C1Nc2ccc(Br)cc2/C1=C(/Nc1cnccn1)c1cccc(O)c1 [Example 72, (Z)-5-bromo-3-((3-hydroxyphenyl) (pyrazin-2-ylamino)methylene)indolin-2-one] | < 10
25 | O=C1Nc2ccc(Br)cc2/C1=C(/Nc1cccnn1)c1cccc(O)c1 [Example 73, (Z)-5-bromo-3-((3-hydroxyphenyl) (pyridazin-3-ylamino)methylene)indolin-2-one] | < 10
26 | O=C1Nc2ccc(Br)cc2/C1=C(/Nc1ccc(C(=O)O)cc1)c1cccc(O)c1 [Example 74, (Z)-4-(((5-bromo-2-oxoindolin-3-ylidene)(3-hydroxyphenyl)methyl)amino)benzoic acid] | 10 to 30
27 | N/C(=C1\C(=O)Nc2ccc(Br)cc21)c1cc(C(F)F)ccn1 [Example 75, (Z)-3-(amino(4-(difluoromethyl)pyridin-2-yl)methylene)-5-bromo indolin-2-one] | 10 to 30
28 | N/C(=C1\C(=O)Nc2ccc(Br)cc21)c1cc2ccccc2o1 [Example 76, (Z)-3-(amino (benzofuran-2-yl)methylene)-5-bromoindolin-2-one] | < 10
29 | N/C(=C1\C(=O)Nc2ccc(Br)cc21)c1ccncc1 [Example 77, (Z)-3-(amino (pyridin-4-yl)methylene)-5-bromoindolin-2-one] | < 10
30 | N/C(=C1\C(=O)Nc2ccc(Br)cc21)c1ncccn1 [Example 78, (Z)-3-(amino (pyrimidin-2-yl)methylene)-5-bromoindolin-2-one] | > 30
31 | NC(=C1C(=O)Nc2ccc(Br)cc21)C1COc2ccccc2O1 (stereo not shown) [Example 79, 3-(Amino(2,3-dihydrobenzo[b] [1,4]dioxin-2-yl)methylene)-5-bromoindolin-2-one] | > 30
